Consider ten compounds from US6433025B1, “Method for retarding and preventing sunburn by UV light” (Cyanotech Corporation, priority 2000, dated 2002).

In one data set the test system is hairless mouse. To be noted: repeated topical treatment; cited from earlier work.
The next data set concerns skin of volunteers. To be noted: 10% solution applied to the skin, cited from earlier work.
For another data set, the system named is primed spleen cells. The settings on record: cited from earlier work.
The subject of data set [1] is basal-cell and squamous-cell carcinomas. To be noted: 4.5 years, cited from earlier work.
The next data set deals with human sunburn response. The settings on record: oral supplementation, normal individuals; cited from earlier work.
The test system of a further data set is rat kidney fibroblasts. The settings on record: cited from earlier work; for level necessary to protect against UV-induced loss of catalase (CAT) / level required to protect against loss of SOD activity / level that prevented the UVA-induced increase in TBARS: UVA light for four hours.
For another data set, the system named is SKH hairless mice. To be noted: fed as sole carotenoid source; cited from earlier work.
The test system of another data set is human blood. The settings on record: response to T-dependent stimuli; cited from earlier work.
The subject of a further data set is sunburn by UVR exposure. Nature of the data set: Example 1: oral astaxanthin soft gel capsules in a subject with extreme propensity for sunburns. Format: in vivo, human. As to the method: Haematococcus algae meal containing 1.5% astaxanthin was thoroughly mixed with safflower oil such that the resulting suspension contained 2.0 mg of pure astaxanthin per gram of safflower oil suspension. 500 mg soft gel capsules were produced from the safflower oil suspension such that each soft gel capsule contained 1.0 mg of pure astaxanthin.
One individual was an adult with extreme propensity for sunburns. The subject had come to Hawaii for vacation and had already sunburned on a 10 minute walk with SPF 50 sunblock cream, long pants and sleeves. They then began taking 2 milligrams of astaxanthin of the above formulation per day. On the eleventh day, they took another walk in the afternoon, on a cloudy day, with long pants, a tee shirt, but without a hat or sunglasses. While 1 mile away from their condo, the clouds dissipated and they were exposed to the full sun while walking back.

Data set [2] deals with interleukin-1 alpha and tumor necrosis factor alpha. To be noted: mouse, in vivo; cited from earlier work.
In data set [3] the test system is sunblister sores and sun sensitivity. The experiment in a line: Example 2: oral astaxanthin in a construction worker with sunblister sores. Type of data set: in vivo, human. To be noted: 4 milligrams per day oral. The source says:
An adult subject is a construction worker in Hawaii and is routinely exposed to the UVR of the sun while working outside. They were often affected by sunblister sores breaking out on their arm after a long day of sun exposure. The individual began taking 4 milligrams of astaxanthin per day derived from Haematococcus algae (as described in the above Example 1). Two milligrams of astaxanthin were consumed with lunch and 2 milligrams with dinner.
The individual stopped taking the astaxanthin formulation for two weeks and the blisters and sun sensitivity returned.

A further data set has as its system vitamin E-deficient rats. To be noted: rat, in vivo; cited from earlier work.
In the next data set the test system is SKH1 hairless mice. To be noted: cited from earlier work.
In another data set the test system is sunburn cells. To be noted: in vivo; cited from earlier work.
Another data set concerns laboratory animals. The settings on record: applied up to 8 hours following UVB exposure; cited from earlier work.
The test system of the next data set is UV-induced erythema. To be noted: cited from earlier work.

`O=C(OOC(=O)c1ccccc1)c1ccccc1` [benzoyl peroxide]: the “cutaneous effects of repeated administration” value in the data set with hairless mouse is “produces skin changes in the hairless mouse that qualitatively resemble those produced by ultraviolet B”.
Turning to `O=C1O[C@H]([C@@H](O)CO)C(O)=C1O` [vitamin C], the “increase in amount of ultraviolet light needed to burn” value with skin of volunteers (average) is given as 22%. Besides, the severity of burns entry in the data set with skin of volunteers is “half of the volunteers experienced much less severe bums”.
With `CC1=C(/C=C/C(C)=C/C=C/C(C)=C/C=C/C=C(C)/C=C/C=C(C)/C=C/C2=C(C)CCCC2(C)C)C(C)(C)CCC1` [beta-carotene], the “number of antibody-secreting cells from primed spleen cells” value (“number of antibody-secreting cells” below) in the data set with primed spleen cells is recorded as “not”. Further, the “incidence of basal-cell or squamous-cell carcinoma versus placebo” value in data set [1] (30 mg per day) is on record as “no significant difference”. The “incidence of basal-cell carcinoma in terms of number of tumors” value in data set [1] was “no effect”. In addition, the “severity of cutaneous photodamage” value with human sunburn response is on record as “unlikely to modify”. Moreover, in the data set with rat kidney fibroblasts, the “level necessary to protect against UV-induced loss of catalase (CAT)” value is given as 1000 nM, the “level required to protect against loss of SOD activity” value is on record as 500 nM and the “level that prevented the UVA-induced increase in TBARS” value is given as 100 nM. Further, the “probability of epidermal tumors” value in the data set on SKH hairless mice is given as “tended to have higher probability of epidermal tumors”.
Regarding `CC1=C[C@H](O)CC(C)(C)[C@H]1/C=C/C(C)=C/C=C/C(C)=C/C=C/C=C(C)/C=C/C=C(C)/C=C/C1=C(C)C[C@@H](O)CC1(C)C` [lutein], in the data set on primed spleen cells, the “number of antibody-secreting cells” value is recorded as “not”. In the data set on rat kidney fibroblasts, the “level necessary to protect against UV-induced loss of catalase (CAT)” value is on record as 100 nM, the “level required to protect against loss of SOD activity” value is reported as 1000 nM and the “level that prevented the UVA-induced increase in TBARS” value was 1000 nM.
For the compound `CC1=C(/C=C/C(C)=C/C=C/C(C)=C/C=C/C=C(C)/C=C/C=C(C)/C=C/C2=C(C)C(=O)[C@@H](O)CC2(C)C)C(C)(C)C[C@H](O)C1=O` [astaxanthin], in the data set on primed spleen cells, the “number of antibody-secreting cells” value is given as “increased”. Further, in the data set with primed spleen cells (even when suboptimal amounts of antigen were present), the “T-helper cell antibody production” value is reported as “enhanced”. For the same compound, in the data set with human blood, the “production of IgM, IgA and IgG antibodies” value was “enhances”. Also, the “sunburn after exposure to the full sun” value with sunburn by UVR exposure (adult female, 2 milligrams of astaxanthin per day oral, eleventh day) was “not affected by the UVR exposure”. The “sunburn effects while wearing shorts outside” value in the data set on sunburn by UVR exposure (remainder of vacation, while taking the astaxanthin supplement) is “without sunburn effects”. The “release of interleukin-1 alpha and tumor necrosis factor alpha” value in data set [2] is “enhances the release of interleukin-1 alpha and tumor necrosis factor alpha in mice to a greater degree than canthaxanthin and beta-carotene”. In the data set on rat kidney fibroblasts, the “level necessary to protect against UV-induced loss of catalase (CAT)” value is 5 nM; the “level required to protect against loss of SOD activity” value was 5 nM; the “level that prevented the UVA-induced increase in TBARS” value is 1 nM; the “protection against UVA light-induced oxidative stress compared to lutein and beta-carotene” value was “superior protection”. Besides, in [3] (after 1 month), the “sensitivity to the sunlight” value is “noticeably improved” and the sunblister sores result was “all of their blisters were healed”. The sunblister sores entry in data set [3] (after 2 weeks) is on record as “blisters began to heal”. For the same compound, the “sensitivity to sun exposure” value in [3] (adult male, after 2 weeks) was “not sensitive to the sun exposure”. Also, the “mitochondrial damage caused by lipid peroxidation” value with vitamin E-deficient rats was “protects the mitochondria from damage”. The “prevention of increases of free putrescine after irradiation” value in the data set on SKH1 hairless mice (astaxanthin alone or in combination with retinol) is “remarkably effective”. In the data set with SKH1 hairless mice (diet 10-ppm astaxanthin, 4 months, ultraviolet light), the “increase of epidermal putrescine after irradiation” value is on record as 1.5 fold. In the data set with SKH1 hairless mice (groups fed astaxanthin), the “spermidine and spermine concentrations” value is “significantly lower”. Moreover, in the data set on SKH1 hairless mice (mouse, in vivo), the “inhibitory effect on putrescine accumulation compared with dietary retinol” value is “stronger inhibitory effect”. In addition, the “probability of epidermal tumors” value in the data set on SKH hairless mice is listed as “tended to have higher probability of epidermal tumors”.
Consider `CC(C)=CCC/C(C)=C/C=C/C(C)=C/C=C/C(C)=C/C=C/C=C(C)/C=C/C=C(C)/C=C/C=C(\C)CCC=C(C)C` [lycopene], for which, in the data set with primed spleen cells, the “number of antibody-secreting cells” value is recorded as “not”. In addition, the “probability of epidermal tumors” value in the data set with SKH hairless mice is on record as “tended to have higher probability of epidermal tumors”.
As for tocopherol, the “number of sunburn cells” value in the data set with sunburn cells was “decreased”.
In the case of `CC(=O)Oc1c(C)c(C)c2c(c1C)CCC(C)(CCC[C@H](C)CCC[C@H](C)CCCC(C)C)O2` (stereo partly drawn) [vitamin E acetate], in the data set with laboratory animals, the “inflammation, skin sensitivity and skin damage” value was “prevented inflammation, skin sensitivity and skin damage”.
Consider `COc1ccc2[nH]cc(CCNC(C)=O)c2c1` [melatonin], for which, in the data set with UV-induced erythema (applied after UV irradiation), the “protective effects against UV-induced erythema” value is on record as “no significant protective effects”. Further, the “development of UV-induced erythema” value in the data set with UV-induced erythema (topical, 15 min before UV irradiation) is on record as “almost completely suppress”.
Consider `CC1=C(/C=C/C(C)=C/C=C/C(C)=C/C=C/C=C(C)/C=C/C=C(C)/C=C/C2=C(C)C(=O)CCC2(C)C)C(C)(C)CCC1=O` [canthaxanthin], for which, in the data set with primed spleen cells, the “number of antibody-secreting cells” value is on record as “not”.
